Tested on: Monocotyledonous and dicotyledonous test plants
Assay: Example B1 herbicidal action, application pre-emergence (Table B1b)
Format: in vivo
Settings: 250 g/ha, evaluated after 4 weeks
Method: Monocotyledonous and dicotyledonous test plants were sown in seed trays in standard soil. Immediately after sowing (pre-emergence) or after 8 to 9 days cultivation (post-emergence), the test compounds were applied by spraying in the form of an aqueous solution derived from the formulation of the technical active ingredient in 0.6 ml acetone and 45 ml formulation solution containing 10.6% Emulsogen EL (CAS RN 61791-12-6), 42.2% N-methylpyrrolidone, 42.2% dipropylene glycol monomethyl ether (CAS RN 34590-94-8) and 0.2% X-77 (CAS RN 11097-66-8). The test plants were then grown in a greenhouse under optimum conditions. After a test duration of 3 weeks (post-emergence) or 4 weeks (pre-emergence), the test was evaluated (10=total damage to plant, 0=no damage to plant).

SMILES	herbicidal action (damage rating 0-10), Amaranthus	herbicidal action (damage rating 0-10), Digitaria	herbicidal action (damage rating 0-10), Panicum	herbicidal action (damage rating 0-10), Setaria	herbicidal action (damage rating 0-10), Sida
CC1(C)CC(S(=O)(=O)C(F)(Cl)c2ccccc2F)=NO1 (racemic) [1.73]	10	10	10	10	8
CC1(C)CC(S(=O)(=O)C(Br)c2ccccc2OC(F)F)=NO1 (racemic) [1.78]	10	10	10	10	2
CC1(C)CC(S(=O)(=O)C(Br)c2ccccc2)=NO1 (racemic) [1.81]	9	6	8	5	0
CC1(C)CC(S(=O)(=O)C(Br)c2ccccc2F)=NO1 (racemic) [1.82]	10	9	10	9	0
COc1cc(OC)cc(C(Br)S(=O)(=O)C2=NOC(C)(C)C2)c1 (racemic) [1.84]	10	9	10	9	0
CC1(C)CC(S(=O)(=O)C(Cl)c2c(F)cccc2C(F)(F)F)=NO1 (racemic) [1.91]	3	10	–	9	10
CC1(C)CC(S(=O)(=O)C(Cn2ccnc2)c2c(F)cccc2F)=NO1 (racemic) [Compound No. 1.87]	3	7	5	7	0
CC1(C)CC(S(=O)(=O)C(Cn2cncn2)c2c(F)cccc2F)=NO1 (racemic) [Compound No. 1.90]	4	4	0	0	5
CC1(C)CC([S+]([O-])C(Cl)c2c(F)cccc2Cl)=NO1 (single isomer, unassigned) [1.33]	0	8	10	7	0
CCC(Cl)(c1c(F)cccc1F)S(=O)(=O)C1=NOC(C)(C)C1 (centres unmarked) [1.16]	0	4	5	4	0
CC1(C)CC(S(=O)(=O)C(Br)(Br)c2c(F)cccc2F)=NO1 [1.50]	10	9	10	10	7
COc1ccccc1C(Br)S(=O)(=O)C1=NOC(C)(C)C1 (centres unmarked) [1.101]	9	8	8	8	0
CC1(C)CC(S(=O)(=O)C(Br)c2cc(F)cc3c2OCOC3)=NO1 (centres unmarked) [1.103]	3	9	9	5	0
CC1(C)CC(S(=O)(=O)C(F)c2cc(F)cc3c2OCOC3)=NO1 (centres unmarked) [1.106]	3	7	8	6	0
CC1(C)CC(S(=O)(=O)C(Br)c2cc(F)cc(F)c2)=NO1 (centres unmarked) [1.134]	5	10	10	9	0
CC1(C)CC(S(=O)(=O)C(Br)c2cc(F)ccc2F)=NO1 (centres unmarked) [1.135]	7	10	10	9	0

SMILES	herbicidal action (damage rating 0-10), Amaranthus	herbicidal action (damage rating 0-10), Digitaria	herbicidal action (damage rating 0-10), Panicum	herbicidal action (damage rating 0-10), Setaria	herbicidal action (damage rating 0-10), Sida
CC1(C)CC([S+]([O-])C(c2c(F)cccc2F)C(F)(F)F)=NO1 (centres unmarked) [1.139]	0	8	0	7	0
COc1ccccc1C(Cl)S(=O)(=O)C1=NOC(C)(C)C1 (centres unmarked) [1.141]	5	9	9	9	0
Cc1ccc(F)c(C(Cl)S(=O)(=O)C2=NOC(C)(C)C2)c1F (centres unmarked) [1.145]	10	10	10	10	7
CC1(C)CC(S(=O)(=O)C(Br)c2ccc(F)cc2F)=NO1 (centres unmarked) [1.150]	6	10	10	9	0
CC1(C)CC(S(=O)(=O)C(Br)c2ccccc2-c2ccccc2)=NO1 (centres unmarked) [1.151]	5	0	8	7	4
Cn1nc(C(F)(F)F)c(C(C(=O)C(F)F)S(=O)(=O)C2=NOC(C)(C)C2)c1OCC(F)(F)F (centres unmarked) [2.06]	7	8	8	7	3
CC(=O)C(c1c(C(F)(F)F)nn(C)c1OCC(F)(F)F)S(=O)(=O)C1=NOC(C)(C)C1 (centres unmarked) [2.08]	4	2	9	–	2
CCOc1c(C(F)(F)S(=O)(=O)C2=NOC(C)(C)C2)c(C(F)(F)F)nn1C [2.17]	10	8	8	8	5
Cn1nc(C(F)(F)F)c(C(F)(F)S(=O)(=O)C2=NOC(C)(C)C2)c1OCC(F)F [2.21]	10	10	10	10	8
CC(=O)OC(C)=C(c1c(C(F)(F)F)nn(C)c1OCC(F)(F)F)S(=O)(=O)C1=NOC(C)(C)C1 [2.32]	7	4	7	4	0
Cc1cc(C(F)(Cl)S(=O)(=O)C2=NOC(C)(C)C2)no1 (centres unmarked) [4.01]	8	8	8	8	8
Cc1cc(C(F)S(=O)(=O)C2=NOC(C)(C)C2)no1 (centres unmarked) [4.02]	10	8	10	7	0
Cc1cc(C(F)(F)S(=O)(=O)C2=NOC(C)(C)C2)no1 [4.03]	9	10	–	10	7
CC1(C)CC(S(=O)(=O)C(CC=C(F)F)c2c(F)cccc2F)=NO1 (centres unmarked) [Compound No. 1.04]	0	7	5	2	0
CC1(C)CC(S(=O)(=O)C(C(=O)C2CC2)c2c(F)cccc2F)=NO1 (centres unmarked) [Compound No. 1.54]	0	8	8	8	0

From patent publication US8680290B2, “Isoxazoline derivatives and their use as herbicides” (Syngenta Limited, priority 2004, dated 2014)
